The source of these data is paper PMC8769072, “Proteome‐scale mapping of binding sites in the unstructured regions of the human proteome” (Molecular Systems Biology, 2022).

The subject of this test is immobilized GST-tagged bait protein domains. Nature of the test: ProP-PD phage selections (HD2 P8, sublibraries, HD2 P3, HD1 P8) with NGS and confidence level. Conditions: for HD confidence / HD mean counts / HD count proportions: HD1 P8 library; for HD mean counts: mean NGS counts over replicate selections; for HD count proportions: mean proportion of NGS counts. It is filed as binding, human.

Where [1] appears, read: HD2 library, bait PDCD6IP_Alix-V-domain__Q8WUM4_360_702, benchmark motif instance, in_library_check FALSE, in_library_coverage 0.
The mark [2] stands for this setting: bait MAP1LC3A_ATG8 (Q9H492 2-121), HD2 library, benchmark motif instance recovered in the ProP-PD selection (TRUE/FALSE).
Where [3] appears, read: bait KPNA4_Arm (O00629 68-487), HD2 library, benchmark motif instance recovered in the ProP-PD selection (TRUE/FALSE).
Setting [4] is: bait SIN3A_PAH__Q96ST3_295_383, HD2 library, whether the validated benchmark motif instance was recovered in the ProP-PD selection (TRUE/FALSE).
[5] abbreviates: HD2 library, bait SUMO1_SUMO__P63165_1_101, known motif instance of the benchmarking set found (TRUE) or not found (FALSE) among selected peptides.
[6] abbreviates: library HD2, bait EPS15_EH__P42566_121_215, whether the validated benchmark motif instance was recovered in the ProP-PD selection (TRUE/FALSE).
Where [7] appears, read: bait CALM1_EF-hand__P0DP23_2_149, library HD2, benchmarking set of validated motif instances, TRUE = motif instance recovered in the ProP-PD selection.
Where [8] appears, read: bait OXSR1___O95747_434_527, HD2 library, whether the validated benchmark motif instance was recovered in the ProP-PD selection (TRUE/FALSE).
Where [9] appears, read: bait AP2B1_adaptin__P63010_700_937, confidence level (4 = High, 2-3 = Medium, 1 = Low).
The mark [10] stands for this setting: bait AP2B1_adaptin__P63010_700_937.
Where [11] appears, read: library HD2, bait VASP_EVH1__P50552_1_114, validated benchmark motif instance, in_library_check TRUE, TRUE/FALSE = instance recovered in ProP-PD selection.
Setting [12] is: library HD2, bait USP7_MATH-TRAF__Q93009_53_206, validated benchmark motif instance, in_library_check TRUE, TRUE/FALSE = instance recovered in ProP-PD selection.
Where [13] appears, read: library HD2, bait WDR5_WD_1234567_P61964_21_334, validated benchmark motif instance, in_library_check TRUE, TRUE/FALSE = instance recovered in ProP-PD selection.
[14] abbreviates: library HD2, bait KLC1_TPR__Q07866_203_497, whether the validated benchmark motif instance was recovered in the ProP-PD selection (TRUE/FALSE).
Where [15] appears, read: HD2 library, bait TNKS_TANK-peptide-bind__O95271_174_649, known motif instance of the benchmarking set found (TRUE) or not found (FALSE) among selected peptides.
[16] abbreviates: bait SUMO1_SUMO__P63165_1_101, HD2 library, confidence level (1-4) of best matching selected peptide.
The mark [17] stands for this setting: bait SUMO1_SUMO__P63165_1_101, HD2 library, specificity score of best matching selected peptide.
Setting [18] is: bait SUMO1_SUMO__P63165_1_101, HD2 library, whether the validated benchmark motif instance was recovered in the ProP-PD selection (TRUE/FALSE).
The mark [19] stands for this setting: HD2 library, bait CALM1_EF-hand__P0DP23_2_149, benchmark motif instance, in_library_check FALSE, in_library_coverage 0.

Regarding -----MSLYPSLEDLKVDK [SDCBP 3-7], the motif_found result under setting [1] is reported as “FALSE”.
As for --MELNSLLILLEAAEYLERRDREA [MXD4 6-16], for the setting “HD2 library, bait SIN3A_PAH__Q96ST3_295_383, benchmark motif instance, in_library_check FALSE, in_library_coverage 0”, the motif_found result is “FALSE”.
Regarding -MDAATLTYDTLRFAEFED, the motif_found result is, setting by setting: under setting [2], “FALSE”; (bait MAP1LC3B_ATG8 (Q9GZQ8 2-119), HD2 library, benchmark motif instance recovered in the ProP-PD selection (TRUE/FALSE)) “FALSE”.
For -MNSPGGRGKKKGSGGASNPV, under setting [3], the motif_found entry was “FALSE”.
Consider AAAAYVDHFAAECLVSMSSRAVVH, for which the motif_found result under setting [4] was “FALSE”.
AAALPQPEVILLDSDLDEPIDL: under setting [5], the motif_found result is “FALSE”.
For AAAVRMNIQMLLEAADYLERREREA, under setting [4], the motif_found result was “FALSE”.
On to AAGPSVASSTNPFQTN, for which the best_specificity (library HD2, bait EPS15_EH__P42566_121_215, best matching peptide) was determined as 1. For the same substance, the best_confidence (library HD2, bait EPS15_EH__P42566_121_215, confidence level of best matching peptide (4 High, 2-3 Medium, 1 Low)) is recorded as 3. Moreover, under setting [6], the motif_found entry is “TRUE”.
As to AAQATGTTNPFLL------, the motif_found result under setting [6] is “FALSE”.
Substance AASVNANFAHFDNFPK returned an HD2_endomembrane confidence (bait AP2B1_adaptin__P63010_700_937, HD2 P8 endomembrane sublibrary, confidence level (4 = High, 2-3 = Medium, 1 = Low)) of 4.
ADTPPPAYLPPEDPMT displayed a best_confidence (library HD2, bait YAP1_WW_1_P46937_169_207, confidence level of best matching selected peptide (4 High, 2-3 Medium, 1 Low)) of 2. Under “library HD2, bait YAP1_WW_1_P46937_169_207, specificity score of best matching selected peptide”, this substance showed a best_specificity of 1. Also, the motif_found result (library HD2, bait YAP1_WW_1_P46937_169_207, validated benchmark motif instance, in_library_check TRUE, TRUE/FALSE = instance recovered in ProP-PD selection) is on record as “TRUE”.
For the substance AEERVVVISSSE, the motif_found result under setting [5] is recorded as “FALSE”.
Under “bait ANKRA2_Ank__Q9H9E1_142_313, library HD2 P8”, AESSQAVMSLPKLQQV yielded an HD2 confidence of 4.
Regarding AFIIWLARRLKKGKK [SELL], under setting [7], the motif_found entry is recorded as “FALSE”.
Turning to AGVFKMGRFQVSVAADGAQ, the motif_found result under setting [8] is listed as “FALSE”.
Under setting [9], AIPWAAFPAVSGVHLS displayed an HD confidence of 4. Under setting [10], the HD mean counts is given as 2.25 and the HD count proportions turned out to be 0.0009118. This substance had an HD2 confidence (bait AP2B1_adaptin__P63010_700_937, HD2 P8 library, confidence level (4 = High, 2-3 = Medium, 1 = Low)) of 3.
Regarding AKNGAASKRAFKQSPPAVPALGAGVKKRRHGDEDTYY, the motif_found entry under setting [3] was “FALSE”.
On to AMICYRKKRKGKLTLEDQAT, for which, under setting [3], the motif_found result is “FALSE”.
For APLEEEIFPSPPPPPEEEG, the motif_found entry under setting [11] is “FALSE”.
As for APPVSGTFKFNTDAAEFIPQEKKNSGL, the motif_found entry (bait PABP-B_PABP__P11940_544_623, HD2 library, whether the validated benchmark motif instance was recovered in the ProP-PD selection (TRUE/FALSE)) is given as “FALSE”.
As for AQCSTSDSACRISPGQ, where the note is “library HD2, bait USP7_MATH-TRAF__Q93009_53_206, confidence level of best matching selected peptide (4 High, 2-3 Medium, 1 Low)”, the best_confidence is reported as 2. The same substance gave a best_specificity (library HD2, bait USP7_MATH-TRAF__Q93009_53_206, specificity score of best matching selected peptide) of 1. The motif_found entry under setting [12] was “TRUE”.
For the substance AQSMVSGSHCTPPPPY, under “bait NEDD4_WW_4 (P46934 890-928), HD2 library, benchmark motif instance recovered in the ProP-PD selection (TRUE/FALSE)”, the motif_found entry is on record as “TRUE”. Where the note is “bait NEDD4_WW_4 (P46934 890-928), HD2 library, confidence level (1-4) of best matching peptide”, this substance returned a best_confidence of 4. In addition, where the note is “bait NEDD4_WW_4 (P46934 890-928), HD2 library, specificity score of best matching peptide”, the best_specificity is listed as 0.99.
Turning to AQSPLPSTNPFQPNGLAPG, the motif_found entry under setting [6] is “FALSE”.
For the substance “ARKEVIRNKIRAIGKMARVFSVLR,VIRNKIRAIGKMARVFS,KEVIRNKIRAIGKMARVFS [PPP3CA]”, under setting [7], the motif_found entry is reported as “FALSE”.
Turning to ARTKQ, the motif_found entry under setting [13] was “FALSE”.
With ARTKQTA, under setting [13], the motif_found entry is given as “FALSE”.
On to ASDDSNGLEWENDFVSAEMDDNGN, for which, under setting [14], the motif_found result was “FALSE”.
On to ASFTEDAPRPPVPGEEGELVST, for which the motif_found entry under setting [15] is “FALSE”.
As to ASSATRELDELMASLSDFKIQGL, the motif_found result (bait PTK2_Focal-AT__Q05397_891_1050, HD2 library, whether the validated benchmark motif instance was recovered in the ProP-PD selection (TRUE/FALSE)) is recorded as “FALSE”.
ASTS: under setting [12], the motif_found result was “FALSE”.
On to ATGSDSSGVIDLTMDDEESG, for which, under setting [5], the motif_found result was “FALSE”.
As for ATLDALLAALRRIQRAD, the motif_found result (library HD2, bait CALM1_EF-hand__P0DP23_2_149, motif instance NOT in library (in_library_check FALSE, in_library_coverage 0)) was “FALSE”.
Take ATQCDPEEIIVLSDSD-------: the motif_found result under setting [5] is given as “FALSE”.
With AVPSVPSTDWEDGDLTDTVSGP, the motif_found result under setting [14] is “FALSE”.
Take CNSDRVLKRSAEGSNPPKPLKKLRFDIEGSDE: under setting [3], the motif_found entry is “FALSE”.
Turning to CRRPLSRTRNPADGIPAPESSS, under setting [15], the motif_found result is on record as “FALSE”.
For DAPIILSDSEEEEMIILEPDKNPKK, the motif_found entry under setting [5] was “FALSE”.
As for DAQAGKEPGGSRAHSSHLK, the motif_found result under setting [12] was “FALSE”.
As to DATLCSGRFTISTLLS, the best_confidence (bait OXSR1___O95747_434_527, HD2 library, confidence level (1-4) of best matching selected peptide) came out at 2. This substance also showed a best_specificity (bait OXSR1___O95747_434_527, HD2 library, specificity score of best matching selected peptide) of 1. Under setting [8], the motif_found result is “TRUE”.
For DDDSSKDSGFTIVSPL, the motif_found result under setting [2] is recorded as “TRUE”. Moreover, the best_confidence (bait MAP1LC3A_ATG8 (Q9H492 2-121), HD2 library, confidence level (1-4) of best matching peptide) is recorded as 2. This substance showed a best_specificity (bait MAP1LC3A_ATG8 (Q9H492 2-121), HD2 library, specificity score of best matching peptide) of 1.
Under setting [16], DDDVLIVYELTPTAEQ showed a best_confidence of 2. The substance further displayed a best_specificity under setting [17] of 1. Further, the motif_found result under setting [18] was “TRUE”.
Turning to “DDGLDEAFSRLAQSRT,WELDDGLDEAFSRLAQSRTNPQVLD [LDLRAP1]”, the motif_found entry (bait AP2B1_adaptin__P63010_700_937, library HD2, benchmarking set of validated motif instances, TRUE = motif instance recovered in the ProP-PD selection) is reported as “TRUE”.
In the case of “DDIMPAVKTVIRSIRILKFLVAKRKF [KCNQ4 524-549]”, under setting [19], the motif_found result is reported as “FALSE”.
DDPDAAELNPFGDPDSEEP: the motif_found result under setting [6] is recorded as “FALSE”.
As to DEIVDLTCESLEPVVV, under setting [16], the best_confidence is given as 2. Besides, the best_specificity under setting [17] was 1. Besides, the motif_found entry under setting [18] was “TRUE”.
With DFPPPPPDLEQLRLTD, the best_confidence (library HD2, bait VASP_EVH1__P50552_1_114, confidence level of best matching selected peptide (4 High, 2-3 Medium, 1 Low)) was determined as 2. Further, for the setting “library HD2, bait VASP_EVH1__P50552_1_114, specificity score of best matching selected peptide”, the best_specificity is on record as 1. Under setting [11], the motif_found entry was “TRUE”.
Consider DGGTTFEHLWSSLEPD, for which the motif_found result (bait MDM2_p53-binding-domain (Q00987 17-125), HD2 library, benchmark motif instance recovered in the ProP-PD selection (TRUE/FALSE)) was “FALSE”.
For DGNLYPRLYPELSQYMGLS [SDCBP 49-53], the motif_found result under setting [1] is on record as “FALSE”.
For DGTISVPETWAKFSND, the HD confidence under setting [9] is 4. Under setting [10], this substance registered an HD mean counts of 1.5 and an HD count proportions of 0.0006297.
DIDQMFSTLLGEMDLLTQSLGVDT: the motif_found result (HD2 library, bait TLN1_PTB__Q9Y490_309_401, known motif instance of the benchmarking set found (TRUE) or not found (FALSE) among selected peptides) is on record as “FALSE”.
In the case of “DKAITDRVILLQKVIRGFKDRSNFLKLKNA [MYO7A 748-763]”, under setting [19], the motif_found result was “FALSE”.
Turning to “DKEDDQEHPSEKQPSGAESGTLARASLALPTSSLSRTASQSSSHRGWEILRQNTLGHLNLGLNLSEGDGEE [TRPV5]”, under setting [7], the motif_found entry is recorded as “FALSE”.
Turning to DLRKIPDSNPFDATAGYRS, the motif_found result under setting [6] is “FALSE”.
Regarding DNEKECIIVWEKK, the motif_found entry under setting [5] was “FALSE”.
For DPSMDKAAVKIQAAFKGYKVRKEMKQQEGPM [OBSCN], the motif_found result under setting [7] is given as “FALSE”.
